Test [1] has as its target Cytoplasmic tyrosine-protein kinase BMX (Homo sapiens) (UniProt P51813). The test can be described thus: Inhibition of BMX (unknown origin) assessed as remaining activity at 1 uM by Kinome scan method relative to control.
The target in test [2] is Casein kinase I isoform gamma-2 (Homo sapiens) (UniProt P78368). Nature of the test: Inhibition of CSNK1G2 (unknown origin) assessed as remaining activity at 1 uM by Kinome scan method relative to control.
Test [3] deals with Epidermal growth factor receptor (Homo sapiens), P00533 [G719C]. Nature of the test: Inhibition of EGFR G719C mutant (unknown origin) assessed as remaining activity at 1 uM by Kinome scan method relative to control.
Test [4] addresses Uncharacterized serine/threonine-protein kinase SBK3 (Homo sapiens) (UniProt P0C264). The test can be described thus: Inhibition of SgK110 (unknown origin) assessed as remaining activity at 1 uM by Kinome scan method relative to control.
Test [5] concerns the target SRSF protein kinase 1 (Homo sapiens) (UniProt Q96SB4). The test can be described thus: Inhibition of SRPK1 (unknown origin) assessed as remaining activity at 1 uM by Kinome scan method relative to control.
The target of test [6] is NUAK family SNF1-like kinase 1 (Homo sapiens) (UniProt O60285). The test can be described thus: Inhibition of human ARK5 assessed as residual activity at 1 uM using RBER-CHKtide as substrate in presence of 33P-ATP by ProQinase assay relative to control.
Sequence of NUAK family SNF1-like kinase 1 (Homo sapiens) (O60285 whole entry): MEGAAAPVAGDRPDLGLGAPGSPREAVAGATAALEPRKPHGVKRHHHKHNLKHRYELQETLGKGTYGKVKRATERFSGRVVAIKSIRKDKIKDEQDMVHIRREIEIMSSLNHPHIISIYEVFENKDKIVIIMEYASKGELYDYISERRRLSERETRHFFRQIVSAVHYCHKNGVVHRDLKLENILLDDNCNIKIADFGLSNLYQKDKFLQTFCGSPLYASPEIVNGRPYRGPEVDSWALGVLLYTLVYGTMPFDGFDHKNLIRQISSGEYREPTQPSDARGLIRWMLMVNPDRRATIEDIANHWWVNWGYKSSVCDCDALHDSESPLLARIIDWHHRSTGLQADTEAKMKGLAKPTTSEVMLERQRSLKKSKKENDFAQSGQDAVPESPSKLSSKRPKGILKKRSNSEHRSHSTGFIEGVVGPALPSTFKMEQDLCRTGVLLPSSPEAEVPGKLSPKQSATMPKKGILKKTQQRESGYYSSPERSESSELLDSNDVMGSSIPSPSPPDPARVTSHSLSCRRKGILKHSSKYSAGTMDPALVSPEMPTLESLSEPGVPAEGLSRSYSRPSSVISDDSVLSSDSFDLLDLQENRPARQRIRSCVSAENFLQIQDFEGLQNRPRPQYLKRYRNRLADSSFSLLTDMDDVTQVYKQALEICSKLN
Test [7] addresses Mitogen-activated protein kinase 10 (Homo sapiens) (UniProt P53779). The test can be described thus: Inhibition of human JNK3 assessed as residual activity at 1 uM using ATF2 as substrate in presence of 33P-ATP by ProQinase assay relative to control.
Test [8] deals with Myosin light chain kinase, smooth muscle (Homo sapiens) (UniProt Q15746). The test can be described thus: Inhibition of human MYLK assessed as residual activity at 1 uM using RB-S6P as substrate in presence of 33P-ATP by ProQinase assay relative to control.
Test [9] has as its target T1, Serine/threonine-protein kinase D1 (Homo sapiens) (UniProt Q15139).
T1 sequence (whole entry): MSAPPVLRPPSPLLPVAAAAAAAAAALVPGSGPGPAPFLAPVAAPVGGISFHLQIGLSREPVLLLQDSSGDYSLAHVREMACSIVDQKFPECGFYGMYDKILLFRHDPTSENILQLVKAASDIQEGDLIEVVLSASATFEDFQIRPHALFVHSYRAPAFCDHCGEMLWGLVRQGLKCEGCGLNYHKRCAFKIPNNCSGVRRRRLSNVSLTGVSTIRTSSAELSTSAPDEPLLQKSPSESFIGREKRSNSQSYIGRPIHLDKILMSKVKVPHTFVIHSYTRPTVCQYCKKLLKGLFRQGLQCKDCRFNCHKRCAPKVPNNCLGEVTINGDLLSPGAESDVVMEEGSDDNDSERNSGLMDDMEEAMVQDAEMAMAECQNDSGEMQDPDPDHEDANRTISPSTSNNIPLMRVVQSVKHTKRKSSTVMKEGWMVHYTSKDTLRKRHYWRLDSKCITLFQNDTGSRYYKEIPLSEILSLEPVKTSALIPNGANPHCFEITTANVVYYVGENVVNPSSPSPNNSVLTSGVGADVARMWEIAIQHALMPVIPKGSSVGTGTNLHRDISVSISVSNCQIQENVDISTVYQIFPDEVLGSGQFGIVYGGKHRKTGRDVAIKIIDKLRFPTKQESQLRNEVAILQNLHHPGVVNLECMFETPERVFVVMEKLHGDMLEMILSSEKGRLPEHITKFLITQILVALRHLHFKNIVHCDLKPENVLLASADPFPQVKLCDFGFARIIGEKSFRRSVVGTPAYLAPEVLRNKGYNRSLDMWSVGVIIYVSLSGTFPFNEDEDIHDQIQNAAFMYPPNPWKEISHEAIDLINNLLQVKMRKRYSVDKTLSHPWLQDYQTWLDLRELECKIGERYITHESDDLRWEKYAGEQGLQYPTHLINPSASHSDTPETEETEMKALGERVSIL
Nature of the test: Inhibition of human PKCmu assessed as residual activity at 1 uM using RBER-CHKtide as substrate in presence of 33P-ATP by ProQinase assay relative to control.

For test [10], the target named is T2, cGMP-dependent protein kinase 2 (Homo sapiens) (UniProt Q13237).
T2 sequence (whole entry): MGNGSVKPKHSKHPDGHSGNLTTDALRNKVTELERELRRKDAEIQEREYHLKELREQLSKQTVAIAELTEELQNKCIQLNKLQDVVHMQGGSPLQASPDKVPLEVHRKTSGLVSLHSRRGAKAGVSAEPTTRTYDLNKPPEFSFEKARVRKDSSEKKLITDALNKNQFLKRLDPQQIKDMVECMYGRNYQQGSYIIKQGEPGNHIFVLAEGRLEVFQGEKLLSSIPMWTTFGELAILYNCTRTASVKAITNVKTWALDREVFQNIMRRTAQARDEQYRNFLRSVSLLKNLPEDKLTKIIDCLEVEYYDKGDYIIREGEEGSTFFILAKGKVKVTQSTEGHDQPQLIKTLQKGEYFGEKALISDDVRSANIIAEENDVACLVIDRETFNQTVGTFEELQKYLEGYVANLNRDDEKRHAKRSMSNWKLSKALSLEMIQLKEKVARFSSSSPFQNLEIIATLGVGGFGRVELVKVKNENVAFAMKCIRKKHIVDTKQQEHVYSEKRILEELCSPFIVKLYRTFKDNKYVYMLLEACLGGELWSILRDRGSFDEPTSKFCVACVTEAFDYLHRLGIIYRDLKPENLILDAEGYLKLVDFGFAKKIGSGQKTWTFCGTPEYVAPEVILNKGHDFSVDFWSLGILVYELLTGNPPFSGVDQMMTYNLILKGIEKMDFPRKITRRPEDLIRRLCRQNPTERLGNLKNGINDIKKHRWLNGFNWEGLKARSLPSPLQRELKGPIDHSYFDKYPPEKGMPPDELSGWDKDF
The test can be described thus: Inhibition of human PRKG2 assessed as residual activity at 1 uM using RBER-GSK3(14-27) as substrate in presence of 33P-ATP by ProQinase assay relative to control.

Test [11] has as its target Macrophage-stimulating protein receptor (Homo sapiens) (UniProt Q04912). The test can be described thus: Inhibition of human RON assessed as residual activity at 1 uM using polyEY as substrate in presence of 33P-ATP by ProQinase assay relative to control.
Test [12] addresses Tyrosine-protein kinase SYK (Homo sapiens) (UniProt P43405). The test can be described thus: Inhibition of human SYK (1 to 635 residues) assessed as residual activity at 1 uM using polyEY as substrate in presence of 33P-ATP by ProQinase assay relative to control.

Each structure is given as a SMILES string.

Sequence of Casein kinase I isoform gamma-2 (Homo sapiens) (P78368 whole entry, looked up, canonical isoform): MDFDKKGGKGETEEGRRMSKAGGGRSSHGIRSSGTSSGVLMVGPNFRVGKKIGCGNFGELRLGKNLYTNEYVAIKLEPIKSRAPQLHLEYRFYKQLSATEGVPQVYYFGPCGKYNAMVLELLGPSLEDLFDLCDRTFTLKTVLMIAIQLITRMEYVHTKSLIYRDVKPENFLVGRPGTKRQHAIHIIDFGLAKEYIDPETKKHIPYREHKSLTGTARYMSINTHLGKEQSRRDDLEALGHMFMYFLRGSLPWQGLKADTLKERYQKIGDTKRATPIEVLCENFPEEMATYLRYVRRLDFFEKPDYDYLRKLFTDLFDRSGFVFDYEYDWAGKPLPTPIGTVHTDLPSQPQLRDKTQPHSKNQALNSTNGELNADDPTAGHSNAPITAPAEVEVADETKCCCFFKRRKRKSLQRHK
Sequence of Macrophage-stimulating protein receptor (Homo sapiens) (Q04912 25-304 limits assumed): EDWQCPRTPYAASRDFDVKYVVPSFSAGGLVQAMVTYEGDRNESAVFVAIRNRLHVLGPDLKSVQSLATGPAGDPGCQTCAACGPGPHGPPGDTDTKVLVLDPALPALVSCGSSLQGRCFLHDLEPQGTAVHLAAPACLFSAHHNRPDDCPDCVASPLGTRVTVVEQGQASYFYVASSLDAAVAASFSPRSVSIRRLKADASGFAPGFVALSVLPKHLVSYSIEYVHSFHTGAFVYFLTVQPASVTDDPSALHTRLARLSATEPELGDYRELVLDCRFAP
Sequence of Macrophage-stimulating protein receptor (Homo sapiens) (Q04912 310-1400 limits assumed): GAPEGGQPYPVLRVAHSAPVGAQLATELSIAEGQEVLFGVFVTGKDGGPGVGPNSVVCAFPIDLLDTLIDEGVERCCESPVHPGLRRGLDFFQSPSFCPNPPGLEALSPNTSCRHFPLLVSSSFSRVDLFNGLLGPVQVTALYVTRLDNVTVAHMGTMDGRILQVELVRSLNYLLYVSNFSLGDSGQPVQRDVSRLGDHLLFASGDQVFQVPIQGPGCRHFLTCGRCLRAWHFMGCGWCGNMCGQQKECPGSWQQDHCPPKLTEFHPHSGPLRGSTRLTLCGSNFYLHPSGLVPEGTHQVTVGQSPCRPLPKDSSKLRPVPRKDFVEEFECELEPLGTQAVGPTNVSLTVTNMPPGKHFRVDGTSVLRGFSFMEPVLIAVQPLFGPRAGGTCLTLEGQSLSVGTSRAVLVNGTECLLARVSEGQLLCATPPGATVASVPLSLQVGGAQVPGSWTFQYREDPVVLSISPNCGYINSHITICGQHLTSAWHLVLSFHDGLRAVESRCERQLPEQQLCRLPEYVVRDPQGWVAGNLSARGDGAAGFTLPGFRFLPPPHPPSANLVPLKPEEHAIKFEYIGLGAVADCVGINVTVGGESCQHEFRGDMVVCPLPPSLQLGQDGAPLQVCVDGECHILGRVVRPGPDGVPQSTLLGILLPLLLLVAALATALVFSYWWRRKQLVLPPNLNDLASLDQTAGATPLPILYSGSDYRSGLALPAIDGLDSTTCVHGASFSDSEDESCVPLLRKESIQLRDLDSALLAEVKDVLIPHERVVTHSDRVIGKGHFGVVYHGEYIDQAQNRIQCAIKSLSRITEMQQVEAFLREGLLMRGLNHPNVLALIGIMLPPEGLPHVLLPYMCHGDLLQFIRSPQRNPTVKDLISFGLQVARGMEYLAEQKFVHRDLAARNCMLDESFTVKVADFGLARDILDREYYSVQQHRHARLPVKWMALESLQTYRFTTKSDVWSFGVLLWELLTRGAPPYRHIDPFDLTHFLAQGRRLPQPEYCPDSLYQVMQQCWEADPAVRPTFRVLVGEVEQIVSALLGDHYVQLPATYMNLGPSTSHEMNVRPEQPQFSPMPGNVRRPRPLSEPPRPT
Sequence of Uncharacterized serine/threonine-protein kinase SBK3 (Homo sapiens) (P0C264 whole entry): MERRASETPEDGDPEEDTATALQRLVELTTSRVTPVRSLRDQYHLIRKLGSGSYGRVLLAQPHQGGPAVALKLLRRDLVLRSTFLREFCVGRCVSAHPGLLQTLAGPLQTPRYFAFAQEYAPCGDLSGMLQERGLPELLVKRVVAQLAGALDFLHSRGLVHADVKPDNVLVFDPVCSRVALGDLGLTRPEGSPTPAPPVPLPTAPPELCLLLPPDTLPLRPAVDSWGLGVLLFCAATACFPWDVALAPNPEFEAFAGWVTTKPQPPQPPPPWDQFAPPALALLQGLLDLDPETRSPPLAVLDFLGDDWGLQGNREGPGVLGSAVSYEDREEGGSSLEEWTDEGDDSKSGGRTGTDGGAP
Sequence of SRSF protein kinase 1 (Homo sapiens) (Q96SB4 whole entry): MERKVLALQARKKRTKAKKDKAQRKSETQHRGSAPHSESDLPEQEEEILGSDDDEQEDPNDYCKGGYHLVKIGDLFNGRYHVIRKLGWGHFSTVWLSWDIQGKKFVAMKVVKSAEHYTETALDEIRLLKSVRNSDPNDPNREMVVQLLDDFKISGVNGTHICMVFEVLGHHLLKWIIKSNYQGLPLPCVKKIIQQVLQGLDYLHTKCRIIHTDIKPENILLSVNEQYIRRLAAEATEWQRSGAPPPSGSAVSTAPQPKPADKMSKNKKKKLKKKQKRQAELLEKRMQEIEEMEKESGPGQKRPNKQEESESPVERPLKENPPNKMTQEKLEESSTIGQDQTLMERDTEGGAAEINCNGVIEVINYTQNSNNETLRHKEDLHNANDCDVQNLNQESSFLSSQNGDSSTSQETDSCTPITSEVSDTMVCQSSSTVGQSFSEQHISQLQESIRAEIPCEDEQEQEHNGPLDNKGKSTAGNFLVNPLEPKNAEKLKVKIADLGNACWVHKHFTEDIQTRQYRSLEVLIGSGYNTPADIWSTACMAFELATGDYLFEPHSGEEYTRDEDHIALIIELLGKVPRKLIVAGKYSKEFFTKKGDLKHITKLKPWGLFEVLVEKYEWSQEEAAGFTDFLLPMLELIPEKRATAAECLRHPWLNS
Sequence of Cytoplasmic tyrosine-protein kinase BMX (Homo sapiens) (P51813 whole entry, canonical isoform): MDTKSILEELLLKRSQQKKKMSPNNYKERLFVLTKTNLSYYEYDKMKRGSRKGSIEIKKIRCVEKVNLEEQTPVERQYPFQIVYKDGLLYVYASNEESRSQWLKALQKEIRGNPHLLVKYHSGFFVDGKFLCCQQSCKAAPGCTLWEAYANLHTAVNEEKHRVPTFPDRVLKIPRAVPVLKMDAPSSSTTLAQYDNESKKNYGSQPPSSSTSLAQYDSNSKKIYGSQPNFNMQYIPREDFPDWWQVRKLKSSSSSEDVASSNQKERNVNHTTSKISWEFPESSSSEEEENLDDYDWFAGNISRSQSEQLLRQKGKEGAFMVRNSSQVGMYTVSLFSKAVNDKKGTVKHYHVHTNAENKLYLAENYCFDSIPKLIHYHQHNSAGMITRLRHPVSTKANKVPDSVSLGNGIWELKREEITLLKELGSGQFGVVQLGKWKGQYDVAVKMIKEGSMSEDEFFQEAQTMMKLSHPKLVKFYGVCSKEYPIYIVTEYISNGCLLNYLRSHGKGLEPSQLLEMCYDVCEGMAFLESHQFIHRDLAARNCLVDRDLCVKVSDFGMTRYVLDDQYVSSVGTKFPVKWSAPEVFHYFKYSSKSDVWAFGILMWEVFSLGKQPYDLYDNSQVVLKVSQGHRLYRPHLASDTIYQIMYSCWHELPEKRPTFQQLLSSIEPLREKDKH
Sequence of Mitogen-activated protein kinase 10 (Homo sapiens) (P53779 whole entry): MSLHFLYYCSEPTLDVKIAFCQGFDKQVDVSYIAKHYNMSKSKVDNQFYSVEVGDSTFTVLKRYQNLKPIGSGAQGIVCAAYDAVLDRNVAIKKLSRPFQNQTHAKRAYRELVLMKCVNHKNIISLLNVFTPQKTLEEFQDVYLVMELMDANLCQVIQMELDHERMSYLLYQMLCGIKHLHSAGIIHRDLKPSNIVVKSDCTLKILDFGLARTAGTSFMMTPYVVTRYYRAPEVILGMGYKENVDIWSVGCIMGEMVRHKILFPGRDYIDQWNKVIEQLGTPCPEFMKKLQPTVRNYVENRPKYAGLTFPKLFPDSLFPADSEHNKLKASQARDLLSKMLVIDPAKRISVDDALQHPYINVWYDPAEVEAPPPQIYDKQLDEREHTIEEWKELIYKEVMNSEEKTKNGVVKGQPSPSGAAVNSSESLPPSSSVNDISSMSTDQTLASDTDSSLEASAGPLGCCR

As for `O=C1c2ccc(Nc3ccc(F)cc3F)cc2CCc2ccc(OC[C@H](O)CO)cc21` [Skepinone-L], the Activity was 100% in test [1]; 100% in [2]; 81% in [3]; 90% in test [4]; 100% in [5]; 115% in test [6]. Also, the Activity was 33% in test [7]; 78% in test [8]; 92% in [9]; 94% in test [10]; 56% in test [11]; 98% in test [12].

The values above are taken from ChEMBL document CHEMBL5696441 (Nat Chem Biol, 2011).
